Results on four compounds are retold here after patent US20080076757A1, “MEDICINE FOR TREATING GASTROINTESTINAL DISORDER INCLUDING IRRITABLE BOWEL SYNDROME” (priority 2003, published 2008).

Each structure is given as a SMILES string.

In one data set the test system is depression. Briefly: Treatment of recurrent depression in the patient of Example 4. In kind it is in vivo, human. To be noted: after several weeks of the SSRI anti-depressant.
In data set [1] the test system is diarrhea-predominant irritable bowel syndrome (D-IBS). Briefly: Treatment of spinal-injury patients presenting diarrhea-predominant irritable bowel syndrome (case Examples 1, 3-6).
Protocol: The complaints include diarrhea-predominant irritable bowel syndrome (D-IBS, awake and sleeping).
The patient is treated with a total daily dose of medicine, which includes 25 mg of tricyclic antidepressant (imipramine hydrochloride) and 300 mg of stool softener (docusate sodium).
The subject of the next data set is muscarinic receptors. Kind of data set: Effect on muscarinic receptors and bowels (statement of the inventor). Further details: species or system human.
The subject of data set [2] is constipation-predominant IBS (C-IBS). The note with it: patients with C-IBS; cited from earlier work.

For the compound `CNCCC(Oc1ccc(C(F)(F)F)cc1)c1ccccc1.Cl` (centres unmarked) [Prozac®], the depression symptoms result with depression is recorded as “begins to obtain relief from the depression symptoms”.

Take `CN(C)CCCN1c2ccccc2CCc2ccccc21.O=C(O)c1cc2ccccc2c(Cc2c(O)c(C(=O)O)cc3ccccc23)c1O` [imipramine pamoate, 5-[3-(dimethylamino)propyl]-10,11-dihydro-5H-dibenzazepine 4,4-methlyenebis-(3-hydroxyl-2-napthoate)]: the “control of bladder and bowel functions” value in data set [1] (Example 3: person, L5-S1 degenerative disc disease, 75 mg/day imipramine pamoate alone, oral, after several days) was “full control of bladder and bowel functions”. In addition, in data set [1] (Example 3, imipramine pamoate 75 mg/day without stool softener), the adverse effect result is on record as “develops constipation”.

With `CN(C)CCCN1c2ccccc2CCc2ccccc21` [imipramine, 5-[3-(dimethylamino)propyl]-10,11-dihydro-5H-dibenzazepine], the muscarinic receptors affected result in the data set with muscarinic receptors is “primarily affects the M2 and M3 muscarinic receptors”.

With `C=C1CCC2(O)C3Cc4ccc(OC5OC(C(=O)O)C(O)C(O)C5O)c5c4C2(CCN3CC2CC2)C1O5` (centres unmarked) [nalmefene glucuronide], in data set [2], the “abdominal pain or bloating” value is listed as “did not reduce abdominal pain or bloating”, the stool consistency result is listed as “stool consistency was not improved”, the stool frequency entry is listed as “increased stool frequency” and the transit time entry was “decreased transit time”.
